# Experimental data published in US8415469B2, “Compounds and methods for kinase modulation, and indications therefor” (Plexxikon Inc., priority 2005, dated 2013).
# How the values were obtained:
# Type in all cases: biochemical
# Btk = molecular target: T1, Btk (Homo sapiens, UniProt Q06187); assay: Z'-Lyte FRET kinase assay (Invitrogen), Btk; settings: read-out: IC50, activity toward kinase Btk
# T1 construct: purchased Invitrogen (assay run by Invitrogen)
# EphB2 = molecular target: T2, EphB2 (Homo sapiens, UniProt P29323); assay: Z'-Lyte FRET kinase assay (Invitrogen), EphB2; settings: read-out: IC50, activity toward kinase EphB2
# T2 construct: purchased Invitrogen (assay run by Invitrogen)
# T2 sequence (P29323 19-1055): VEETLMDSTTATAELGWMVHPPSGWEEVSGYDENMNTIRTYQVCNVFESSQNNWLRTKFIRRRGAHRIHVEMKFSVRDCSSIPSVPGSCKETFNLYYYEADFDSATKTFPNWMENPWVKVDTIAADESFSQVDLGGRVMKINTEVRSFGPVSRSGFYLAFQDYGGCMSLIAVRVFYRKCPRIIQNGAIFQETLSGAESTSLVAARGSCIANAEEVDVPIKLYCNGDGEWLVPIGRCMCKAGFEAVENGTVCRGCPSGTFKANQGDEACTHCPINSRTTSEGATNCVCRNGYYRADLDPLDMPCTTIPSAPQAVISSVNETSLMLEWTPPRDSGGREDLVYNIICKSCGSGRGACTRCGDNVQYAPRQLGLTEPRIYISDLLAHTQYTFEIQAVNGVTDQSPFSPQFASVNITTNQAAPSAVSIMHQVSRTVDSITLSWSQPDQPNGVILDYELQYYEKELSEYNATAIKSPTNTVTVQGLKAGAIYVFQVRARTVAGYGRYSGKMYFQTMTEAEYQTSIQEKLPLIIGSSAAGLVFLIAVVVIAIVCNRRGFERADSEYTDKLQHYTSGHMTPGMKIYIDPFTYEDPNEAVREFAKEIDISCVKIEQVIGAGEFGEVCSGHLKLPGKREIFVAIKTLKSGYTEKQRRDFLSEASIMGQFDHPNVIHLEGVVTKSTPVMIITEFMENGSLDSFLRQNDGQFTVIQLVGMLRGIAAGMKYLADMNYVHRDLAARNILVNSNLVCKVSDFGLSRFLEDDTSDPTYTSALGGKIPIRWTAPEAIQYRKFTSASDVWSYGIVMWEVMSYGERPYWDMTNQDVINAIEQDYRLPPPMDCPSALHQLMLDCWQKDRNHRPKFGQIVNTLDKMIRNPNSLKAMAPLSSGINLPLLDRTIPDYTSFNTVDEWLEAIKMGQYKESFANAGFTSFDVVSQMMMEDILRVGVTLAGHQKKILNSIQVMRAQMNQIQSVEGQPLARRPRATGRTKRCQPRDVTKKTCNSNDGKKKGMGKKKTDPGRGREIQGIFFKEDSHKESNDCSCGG
# Text: The effect of potential modulators of kinase activity can be measured in a variety of different assays known in the art. For example, direct radiometric, indirect FRET or AlphaScreen assays may be used to assess the level of phosphorylation of a substrate in the presence of test compounds in order to determine the inhibitory affect of the compound on the kinase. Invitrogen (Carlsbad, Calif.) uses a FRET based assay for Btk, EGFR, EphB2, Flt3, lrak4, Kdr, MAP2K1, MAPKAPK2, PDGFRB, PKC theta, Stk6 and Yes. For these assays, compounds of the invention were screened by Invitrogen using Z′-Lyte™ kinase assay.
# Briefly, the Invitrogen kinase assay involves use of a specific peptide substrate optimized for each kinase, containing a fluorophore at each end that make up the FRET pair. The peptide sensitivity to proteolytic cleavage depends on phosphorylation of the peptide. Non-phosphorylated peptide is cleaved by a protease while peptide phosphorylated by the kinase is not cleaved. Cleavage of the peptide disrupts the FRET between the donor (coumarin) and acceptor (fluorescein) fluorophores, resulting in an increase in the ratio of donor emission to acceptor emission. The emission ratio of coumarin to fluorescein is used to assess the reaction progress. The extent of phosphorylation is determined from the emission ratio, which is low when the kinase is active (phosphorylated peptide is not cleaved, FRET pair connected) or higher for inhibited kinase (non-phosphorylated peptide is cleaved, FRET pair separated). Thus, the assay involves a kinase reaction in the presence of varying concentrations of a given compound, a development reaction with site specific protease, and detection of the fluorescent emission ratio of coumarin and fluorscein. […] Reaction conditions for each kinase are determined to provide optimal reaction times, incubation temperature, kinase and ATP concentrations. Test samples are made up in 1× kinase buffer (50 mM HEPES pH 7.5, 50 mM MgCl2, 5 mM EGTA, 0.05% BRIJ-35) and compound at desired concentration prepared in DMSO such that the final DMSO is 1%. […] Typically, assay plates are prepared to 10 μl final volume per sample, adding 2.5 μl of compound at 4× the desired concentration in 4% DMSO (serial dilution of compound provides concentration curve), 5 μl of the desired kinase mixed with Z′-LYTE™ peptide substrate (2× in 2× kinase buffer, final peptide at 2 μM), and 2.5 μl of 4×ATP solution. All kinase except for MAP2K1 were at 10 μM ATP in the kinase reaction, while MAP2K1 was at 100 μM. Samples are mixed and the kinase reaction is incubated 1 hour at room temperature, after which 5 μl of development solution is added and mixed. After incubation for another 1 hour at room temperature, 5 μl of stop reagent is added to each sample and mixed. The fluorescence signals are measured to determine the emission ratio.
# Fms = molecular target: T3, Fms (Homo sapiens, UniProt P07333); assay: AlphaScreen kinase assay, Fms; settings: read-out: IC50, activity toward kinase Fms
# T3 construct: purchased Upstate Biotechnology
# Kdr = molecular target: T4, Kdr (Homo sapiens, UniProt P35968); assay: Z'-Lyte FRET kinase assay (Invitrogen), Kdr; settings: read-out: IC50, activity toward kinase Kdr
# T4 construct: purchased Invitrogen (assay run by Invitrogen)
# T4 sequence (P35968 20-1356): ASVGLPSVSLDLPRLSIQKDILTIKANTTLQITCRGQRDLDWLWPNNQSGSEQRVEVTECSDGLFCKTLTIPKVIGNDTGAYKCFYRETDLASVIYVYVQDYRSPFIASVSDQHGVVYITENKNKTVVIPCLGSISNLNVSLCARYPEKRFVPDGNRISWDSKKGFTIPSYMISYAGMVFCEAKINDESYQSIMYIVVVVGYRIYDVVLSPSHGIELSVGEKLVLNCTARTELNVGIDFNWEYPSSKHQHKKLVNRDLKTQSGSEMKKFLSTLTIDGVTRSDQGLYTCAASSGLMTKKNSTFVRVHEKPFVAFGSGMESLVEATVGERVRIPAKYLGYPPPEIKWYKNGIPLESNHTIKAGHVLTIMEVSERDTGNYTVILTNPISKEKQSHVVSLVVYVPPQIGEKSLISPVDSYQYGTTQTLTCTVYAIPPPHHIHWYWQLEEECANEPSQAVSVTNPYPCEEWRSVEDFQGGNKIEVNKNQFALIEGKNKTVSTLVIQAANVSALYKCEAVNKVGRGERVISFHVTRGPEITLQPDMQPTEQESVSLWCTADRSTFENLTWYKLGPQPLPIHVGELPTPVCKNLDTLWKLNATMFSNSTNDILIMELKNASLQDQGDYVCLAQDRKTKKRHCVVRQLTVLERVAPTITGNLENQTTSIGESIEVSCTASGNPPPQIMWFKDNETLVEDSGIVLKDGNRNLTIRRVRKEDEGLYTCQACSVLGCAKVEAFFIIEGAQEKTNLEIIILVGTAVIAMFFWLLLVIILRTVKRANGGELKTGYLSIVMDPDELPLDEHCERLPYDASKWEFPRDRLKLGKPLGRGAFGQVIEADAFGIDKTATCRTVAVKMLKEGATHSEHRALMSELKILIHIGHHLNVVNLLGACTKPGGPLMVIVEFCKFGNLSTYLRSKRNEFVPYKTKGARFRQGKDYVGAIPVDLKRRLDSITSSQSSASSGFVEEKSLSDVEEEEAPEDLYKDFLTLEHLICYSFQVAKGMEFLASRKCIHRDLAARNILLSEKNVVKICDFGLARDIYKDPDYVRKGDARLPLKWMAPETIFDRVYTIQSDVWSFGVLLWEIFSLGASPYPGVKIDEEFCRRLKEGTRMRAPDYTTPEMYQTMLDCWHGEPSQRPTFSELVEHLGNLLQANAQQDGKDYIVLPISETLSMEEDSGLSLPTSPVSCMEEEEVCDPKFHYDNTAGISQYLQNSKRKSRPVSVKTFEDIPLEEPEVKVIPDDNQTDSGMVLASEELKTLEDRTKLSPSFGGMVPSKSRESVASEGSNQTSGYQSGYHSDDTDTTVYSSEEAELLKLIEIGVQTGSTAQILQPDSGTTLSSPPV
# Yes = molecular target: T5, Yes (Homo sapiens, UniProt P07947); assay: Z'-Lyte FRET kinase assay (Invitrogen), Yes; settings: read-out: IC50, activity toward kinase Yes
# T5 construct: purchased Invitrogen (Carlsbad, Calif.), screening service
# T5 sequence (P07947 whole entry): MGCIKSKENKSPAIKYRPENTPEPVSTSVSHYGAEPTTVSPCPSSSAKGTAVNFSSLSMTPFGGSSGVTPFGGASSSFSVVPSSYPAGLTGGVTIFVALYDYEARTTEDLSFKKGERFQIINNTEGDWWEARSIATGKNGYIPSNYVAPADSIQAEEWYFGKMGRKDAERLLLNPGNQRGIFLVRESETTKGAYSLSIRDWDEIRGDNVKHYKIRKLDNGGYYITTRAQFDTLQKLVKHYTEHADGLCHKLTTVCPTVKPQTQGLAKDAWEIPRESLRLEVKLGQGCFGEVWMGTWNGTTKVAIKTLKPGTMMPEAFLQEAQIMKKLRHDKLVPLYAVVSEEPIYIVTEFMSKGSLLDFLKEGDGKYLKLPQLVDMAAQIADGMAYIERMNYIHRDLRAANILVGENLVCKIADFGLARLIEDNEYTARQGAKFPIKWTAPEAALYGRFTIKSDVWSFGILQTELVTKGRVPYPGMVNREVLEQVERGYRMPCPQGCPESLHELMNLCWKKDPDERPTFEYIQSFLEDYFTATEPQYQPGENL
# Procedure, shortened: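 Inhibition was inferred from protease cleavage of non-phosphorylated peptide, measured as a coumarin/fluorescein ratio. Kinase reactions used 10 μM ATP for 1 h at room temperature.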
# Abl = molecular target: T6, Abl (Homo sapiens, UniProt P00519); assay: AlphaScreen kinase assay, Abl; settings: read-out: activity toward kinase Abl, IC50
# T6 construct: P1121. pET-SPEC BI-PTP Abl G227-V515-X; His6 (N); made in house; host or cells: E. coli (PTP1B co-expressed)
# T6 sequence (P00519 with tags, fused parts or gaps): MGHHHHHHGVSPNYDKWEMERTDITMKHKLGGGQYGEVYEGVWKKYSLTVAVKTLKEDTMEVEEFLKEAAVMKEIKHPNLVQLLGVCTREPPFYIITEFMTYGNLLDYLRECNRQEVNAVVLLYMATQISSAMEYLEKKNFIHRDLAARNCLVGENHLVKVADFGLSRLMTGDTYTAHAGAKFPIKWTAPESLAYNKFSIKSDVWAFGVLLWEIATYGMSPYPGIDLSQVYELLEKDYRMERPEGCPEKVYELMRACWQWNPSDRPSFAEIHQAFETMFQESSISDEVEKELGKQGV
# Procedure, shortened: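 Bead-proximity format: phosphopeptide links anti-phospho antibody acceptor beads to streptavidin donor beads via biotin tag. Compounds were serially diluted 1:3 (8 points) from 20 mM stocks in DMSO.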
# B-Raf V600E = molecular target: T7, B-Raf V600E (Homo sapiens, UniProt P15056, V600E); assay: AlphaScreen kinase assay, B-Raf V600E; settings: read-out: IC50, activity toward kinase B-Raf V600E
# T7 construct: P4254. pFastBacBD-CDC37 BRAF D437-K722-X, V600E; His6 with pFastBac HT leader (TEV site) (N); made in house; host or cells: Sf9 (baculovirus; chaperone CDC37 co-expressed)
# T7 sequence (P15056 with tags, fused parts or gaps V600E): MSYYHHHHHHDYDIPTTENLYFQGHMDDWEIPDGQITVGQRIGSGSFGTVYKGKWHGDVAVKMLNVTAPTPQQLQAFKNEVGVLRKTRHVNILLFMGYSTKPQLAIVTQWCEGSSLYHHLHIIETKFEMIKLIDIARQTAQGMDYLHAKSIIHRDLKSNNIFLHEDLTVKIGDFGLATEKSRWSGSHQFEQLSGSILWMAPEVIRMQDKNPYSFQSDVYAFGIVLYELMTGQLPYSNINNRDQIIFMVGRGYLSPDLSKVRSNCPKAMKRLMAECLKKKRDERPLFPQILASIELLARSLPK
# FGFR1 = molecular target: T8, FGFR1 (Homo sapiens, UniProt P11362, C488A/C584S); assay: AlphaScreen kinase assay, FGFR1; settings: read-out: IC50, activity toward kinase FGFR
# T8 construct: P1351.pET N6 BI-PTP FGFR A458-E765-X C488A, C584S; made in house; host or cells: E. coli (PTP1B co-expressed)
# T8 sequence (P11362 458-765 C488A/C584S): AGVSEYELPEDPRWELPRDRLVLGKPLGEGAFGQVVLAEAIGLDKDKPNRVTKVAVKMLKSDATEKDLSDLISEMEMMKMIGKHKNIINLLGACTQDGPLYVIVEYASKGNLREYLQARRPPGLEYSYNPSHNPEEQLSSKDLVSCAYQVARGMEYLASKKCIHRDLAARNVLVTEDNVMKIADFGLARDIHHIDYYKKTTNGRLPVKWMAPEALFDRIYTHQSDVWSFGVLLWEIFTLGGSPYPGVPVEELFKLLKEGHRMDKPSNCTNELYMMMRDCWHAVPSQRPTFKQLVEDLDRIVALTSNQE
# Ret = molecular target: T9, Ret (Homo sapiens, UniProt P07949); assay: AlphaScreen kinase assay, Ret; settings: read-out: IC50, activity toward kinase Ret
# T9 construct: P1378.pET-SF BI-PTP RET H661-R1012 HIS; made in house
# T9 sequence (P07949 with tags, fused parts or gaps): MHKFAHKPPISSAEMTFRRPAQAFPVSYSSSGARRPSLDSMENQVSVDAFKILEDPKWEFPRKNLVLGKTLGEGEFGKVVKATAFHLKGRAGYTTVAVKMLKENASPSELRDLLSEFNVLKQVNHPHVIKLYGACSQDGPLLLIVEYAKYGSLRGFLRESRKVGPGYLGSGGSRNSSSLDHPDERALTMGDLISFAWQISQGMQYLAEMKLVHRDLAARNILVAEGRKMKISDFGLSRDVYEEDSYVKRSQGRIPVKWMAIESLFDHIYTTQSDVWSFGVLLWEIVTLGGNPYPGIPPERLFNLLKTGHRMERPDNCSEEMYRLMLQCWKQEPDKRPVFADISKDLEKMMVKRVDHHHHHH
# Stk6 = molecular target: T10, Stk6 (Homo sapiens, UniProt O14965); assay: Z'-Lyte FRET kinase assay (Invitrogen), Stk6; settings: read-out: IC50, activity toward kinase Stk6
# T10 construct: purchased Invitrogen (Carlsbad, Calif.), screening service
# T10 sequence (O14965 1-403): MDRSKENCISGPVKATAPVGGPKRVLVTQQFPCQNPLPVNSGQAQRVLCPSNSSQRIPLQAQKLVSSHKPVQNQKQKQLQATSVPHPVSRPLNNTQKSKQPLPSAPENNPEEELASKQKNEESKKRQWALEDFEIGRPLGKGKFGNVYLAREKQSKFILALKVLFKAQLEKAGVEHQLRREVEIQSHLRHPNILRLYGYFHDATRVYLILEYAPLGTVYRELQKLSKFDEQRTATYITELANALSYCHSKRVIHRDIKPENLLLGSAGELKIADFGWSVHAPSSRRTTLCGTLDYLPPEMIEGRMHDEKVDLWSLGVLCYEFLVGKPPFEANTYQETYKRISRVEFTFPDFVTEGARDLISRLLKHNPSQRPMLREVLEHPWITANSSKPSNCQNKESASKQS
# B-Raf = molecular target: T11, B-Raf (Homo sapiens, UniProt P15056); assay: AlphaScreen kinase assay, B-Raf; settings: read-out: IC50, activity toward kinase B-Raf
# T11 construct: purchased Upstate Biotechnology
# T11 sequence (P15056 whole entry): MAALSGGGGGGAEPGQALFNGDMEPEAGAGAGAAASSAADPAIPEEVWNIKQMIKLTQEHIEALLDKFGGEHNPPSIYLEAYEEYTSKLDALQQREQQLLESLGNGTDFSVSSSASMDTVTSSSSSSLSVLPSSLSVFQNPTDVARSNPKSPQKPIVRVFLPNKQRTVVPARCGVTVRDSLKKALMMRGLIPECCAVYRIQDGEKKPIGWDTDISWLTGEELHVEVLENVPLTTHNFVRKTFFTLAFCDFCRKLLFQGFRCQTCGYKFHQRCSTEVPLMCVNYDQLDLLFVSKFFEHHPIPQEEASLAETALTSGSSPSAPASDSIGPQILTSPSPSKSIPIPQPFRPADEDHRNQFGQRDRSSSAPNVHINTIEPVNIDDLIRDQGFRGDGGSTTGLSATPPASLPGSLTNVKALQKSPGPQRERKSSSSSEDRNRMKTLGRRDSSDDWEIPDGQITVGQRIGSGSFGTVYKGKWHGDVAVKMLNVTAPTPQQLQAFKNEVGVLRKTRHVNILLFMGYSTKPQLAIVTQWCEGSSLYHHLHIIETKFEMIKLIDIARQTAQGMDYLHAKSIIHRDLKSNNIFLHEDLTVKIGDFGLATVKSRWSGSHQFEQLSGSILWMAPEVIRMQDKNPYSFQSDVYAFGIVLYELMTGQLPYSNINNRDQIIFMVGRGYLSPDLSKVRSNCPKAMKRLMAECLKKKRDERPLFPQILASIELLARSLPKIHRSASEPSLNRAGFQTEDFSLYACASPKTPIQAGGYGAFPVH
# Jnk3 = molecular target: T12, Jnk3 (Homo sapiens, UniProt P53779); assay: AlphaScreen kinase assay, Jnk3; settings: read-out: IC50, activity toward kinase Jnk3
# T12 construct: purchased Upstate Biotechnology
# T12 sequence (P53779 whole entry): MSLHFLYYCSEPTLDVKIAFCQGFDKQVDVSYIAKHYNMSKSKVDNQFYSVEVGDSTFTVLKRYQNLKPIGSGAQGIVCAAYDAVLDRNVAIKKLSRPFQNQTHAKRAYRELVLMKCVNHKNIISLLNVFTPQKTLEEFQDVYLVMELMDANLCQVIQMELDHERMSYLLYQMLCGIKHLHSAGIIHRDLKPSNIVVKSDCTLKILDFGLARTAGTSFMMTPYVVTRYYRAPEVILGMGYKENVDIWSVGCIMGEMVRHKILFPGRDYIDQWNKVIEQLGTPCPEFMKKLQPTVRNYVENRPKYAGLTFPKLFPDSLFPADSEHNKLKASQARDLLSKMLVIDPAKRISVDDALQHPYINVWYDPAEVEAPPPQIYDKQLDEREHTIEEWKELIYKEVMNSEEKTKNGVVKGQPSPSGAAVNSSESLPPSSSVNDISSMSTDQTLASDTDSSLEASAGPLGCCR
# Kit = molecular target: T13, Kit (Homo sapiens, UniProt P10721); assay: AlphaScreen kinase assay, Kit; settings: read-out: IC50, activity toward kinase Kit
# T13 construct: P1332.N6 BI PTP KIT M552-K948-X COD; His6 (N); made in house; host or cells: E. coli (PTP1B co-expressed)
# T13 sequence (P10721 with tags, fused parts or gaps): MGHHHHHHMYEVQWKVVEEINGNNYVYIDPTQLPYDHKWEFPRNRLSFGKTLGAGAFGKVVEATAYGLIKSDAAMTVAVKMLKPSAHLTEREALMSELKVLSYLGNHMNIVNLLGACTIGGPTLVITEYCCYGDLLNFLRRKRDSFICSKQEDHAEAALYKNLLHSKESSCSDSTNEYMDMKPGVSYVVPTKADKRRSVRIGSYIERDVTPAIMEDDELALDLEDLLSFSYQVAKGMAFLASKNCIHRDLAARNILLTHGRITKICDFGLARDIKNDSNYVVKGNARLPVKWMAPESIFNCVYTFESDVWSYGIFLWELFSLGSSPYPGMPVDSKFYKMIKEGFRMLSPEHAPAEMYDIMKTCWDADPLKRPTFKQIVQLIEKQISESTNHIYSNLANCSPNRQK
# T1 sequence (Q06187 whole entry): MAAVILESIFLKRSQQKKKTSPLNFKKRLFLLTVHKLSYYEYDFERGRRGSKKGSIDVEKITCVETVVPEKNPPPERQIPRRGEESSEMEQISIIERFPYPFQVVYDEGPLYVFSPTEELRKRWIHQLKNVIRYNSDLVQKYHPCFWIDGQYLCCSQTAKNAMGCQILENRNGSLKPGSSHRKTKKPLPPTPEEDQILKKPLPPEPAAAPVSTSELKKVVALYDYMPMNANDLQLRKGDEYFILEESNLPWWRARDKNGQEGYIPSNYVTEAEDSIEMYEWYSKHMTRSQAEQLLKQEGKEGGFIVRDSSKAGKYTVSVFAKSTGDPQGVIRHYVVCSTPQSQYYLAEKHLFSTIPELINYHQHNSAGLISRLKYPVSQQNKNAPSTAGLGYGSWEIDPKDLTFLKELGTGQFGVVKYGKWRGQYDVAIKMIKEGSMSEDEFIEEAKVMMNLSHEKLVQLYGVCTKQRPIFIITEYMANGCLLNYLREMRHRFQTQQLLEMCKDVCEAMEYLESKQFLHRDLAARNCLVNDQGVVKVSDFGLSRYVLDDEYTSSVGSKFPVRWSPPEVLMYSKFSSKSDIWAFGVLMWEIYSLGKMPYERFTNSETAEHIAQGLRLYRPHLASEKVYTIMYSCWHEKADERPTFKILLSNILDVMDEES
SMILES,IC50 (Btk) [µM],IC50 (EphB2) [µM],IC50 (Fms) [µM],IC50 (Kdr) [µM],IC50 (Yes) [µM],IC50 (Abl) [µM],IC50 (B-Raf V600E) [µM],IC50 (FGFR1) [µM],IC50 (Ret) [µM],IC50 (Stk6) [µM],IC50 (B-Raf) [µM],IC50 (Jnk3) [µM],IC50 (Kit) [µM]
O=C(c1cccc(Cl)c1Cl)c1c[nH]c2nccc(-c3cccnc3)c12 [Compound P-0043],≤ 10,≤ 10,,≤ 10,≤ 10,,≤ 10,≤ 10,≤ 10,≤ 10,,,
CC(=O)Nc1cccc(-c2ccnc3[nH]cc(C(=O)c4cccc(Cl)c4Cl)c23)c1 [Compound P-0186],,≤ 10,,,,,≤ 10,,≤ 10,,,,
"COC(c1c(F)ccc(O)c1F)c1c[nH]c2ncc(Br)cc12 (centres unmarked) [Compound P-0126, 3-[(5-Bromo-1H-pyrrolo[2,3-b]pyridin-3-yl)-methoxy-methyl]-2,4-difluoro-phenol]",,≤ 10,,≤ 10,≤ 10,,≤ 10,,,,≤ 10,,
Brc1cnc2[nH]cc(Sc3ccccc3)c2c1 [Compound P-0125],≤ 10,≤ 10,,≤ 10,≤ 10,,,,,,,,

# Now from value to molecule:
IC50 (Btk) [µM],IC50 (EphB2) [µM],IC50 (Fms) [µM],IC50 (Kdr) [µM],IC50 (Yes) [µM],IC50 (Abl) [µM],IC50 (B-Raf V600E) [µM],IC50 (FGFR1) [µM],IC50 (Ret) [µM],IC50 (Stk6) [µM],IC50 (B-Raf) [µM],IC50 (Jnk3) [µM],IC50 (Kit) [µM],SMILES
≤ 10,≤ 10,≤ 10,≤ 10,≤ 10,,,,,,,,,COc1cccc(Sc2c[nH]c3ncc(Br)cc23)c1 [Compound P-0145]
≤ 10,≤ 10,,≤ 10,≤ 10,≤ 10,≤ 10,,,,,,,O=C(c1cccc(O)c1)c1c[nH]c2ncc(-c3cc(F)cc(F)c3)cc12 [Compound P-0074]
,≤ 10,,,≤ 10,,≤ 10,,,,,,,O=C(c1ccccc1F)c1c[nH]c2nccc(-c3cccnc3)c12 [Compound P-0062]
≤ 10,≤ 10,,≤ 10,≤ 10,,≤ 10,,≤ 10,,,,,COc1ccc(-c2ccnc3[nH]cc(C(=O)c4cccc(Cl)c4Cl)c23)cn1 [Compound P-0107]
≤ 10,≤ 10,,≤ 10,≤ 10,,≤ 10,≤ 10,≤ 10,,≤ 10,≤ 10,≤ 10,CCc1cnc2[nH]cc(C(=O)c3cccc(O)c3)c2c1 [Compound P-0059]
≤ 10,≤ 10,,≤ 10,≤ 10,,≤ 10,,≤ 10,,,,,NC(=O)c1cccc(-c2ccnc3[nH]cc(C(=O)c4cccc(Cl)c4Cl)c23)c1 [Compound P-0139]
